Patent publication US10807951B2, “mTORC1 modulators” (THE REGENTS OF THE UNIVERSITY OF CALIFORNIA, priority 2017, dated 2020)
Entries after “also recorded” stand apart in the source; their conditions may differ.

What was measured:
mTOR = test: Immunofluorescence of mTOR and LAMP2 in HEK-293A cells; format: cell-based; settings: 2 h
Experimental: (§1) FIGS. 6A-6D. CC 1-44 inhibits mTORC1 signaling and activates autophagy. (FIG. 6A) Visual IP experiment monitoring binding of GFP-RagB to RFP-tagged, bead-bound Lamtor complex. […] (FIG. 6B) Immunofluorescence for endogenous RagA and LAMP2 in HEK-293A cells treated with DMSO, YP 1-44 or CC 1-44 for 2 h. […] (FIG. 6C) Immunofluorescence for endogenous mTOR and LAMP2 in HEK-293A cells treated with DMSO or CC 1-44 for 2 h. […] (FIG. 6D) Immunoblotting for autophagic markers LC3b and p62 from HEK-293A cells treated with DMSO (lane 1) or CC 1-44 (lane 3) for 2 h.
(§2) Next, we investigated the mechanism of mTORC1 inhibition by CC-1-44 using visual IP and immunofluorescence. […] Indeed, when we visualized RagA and RagC localization in CC 1-44-treated cells, their localization to LAMP2-positive lysosomes was increased, not decreased as for YP 1-44 (FIG. 6B). This observation pointed to a different mechanism for mTORC1 inactivation by CC 1-44. Rather than disrupting the integrity of the LAMTOR-Rag assembly, CC 1-44 prevents its activation, causing it to strongly accumulate at the lysosome in a conformation that is unable to bind to mTORC1.

[1] = target: T1, Lamtor (a.k.a. Ragulator) and Rag GTPase protein complexes (Homo sapiens, UniProt O43504); test: Visual-IP of Rag GTPase binding to bead-bound Lamtor (Ragulator); settings: for disruption of Rag GTPase-Lamtor interaction (Visual IP): in vitro, GFP-RagB on RFP-Ragulator beads, 50 μM compound in small-scale screens
T1 construct: RFP (on the Ragulator complex); GST (large-scale screen); on the Ragulator complex; made in house; host or cells: HEK293T (small-scale screen), HEK293F (large-scale screen), transient transfection
From the text: To assay for mTORC1-inhibiting compounds, we in vitro-reconstituted the interaction between the Lamtor (a.k.a. Ragulator) and Rag GTPase protein complexes, which are essential for amino acid-driven mTORC1 recruitment (and thus activation) to the lysosome (24, 30, 36, 37). We sequentially coated agarose beads with RFP-tagged Ragulator and with GFP-tagged Rag GTPases, resulting in Rag binding to the beads via their interaction with Lamtor. This method, which we call ‘Visual co-immunoprecipitation’ (Visual-IP) is essentially a binding reaction at equilibrium, in which the interaction between the two binding partners can be easily scored as color overlap between the bead-bound, red-tagged Lamtor and the soluble, green-fluorescent Rag GTPases. Interaction between the two proteins results in red-green color overlap (‘yellow beads’), whereas when the interaction is disrupted, partial or complete dispersion of the green signal in the surrounding buffer is observed (‘red beads’) (FIG. 1A and FIG. 1B). This assay could easily be scaled up and implemented in 384-well plates, which were imaged with the aid of an automated fluorescence microscope (FIG. 1C).
HEK293T cells were plated on 15 cm plates at 10 million cells per plate. 24 hours later, the cells were transfected using 500 μL OptiMEM transfection media, 60 μL polyethyleneimine (PEI, Sigma) and 10 μg total DNA. The transfection mix was incubated for 15 minutes and then added directly to the cell media. 48 hours later, the media was removed, and the cells were washed three times with PBS. The cells were scraped from the plate and collected in 10 mL PBS. The samples were centrifuged for 5 minutes at 1500 g at 4° C. The cell pellets were then resuspended in 1 mL Triton lysis buffer (1% Triton X-100, 130 mM NaCl, 2 mM EGTA, 2.5 mM MgCl2, 25 mM HEPES, pH 7.4, 10% glycerol, protease inhibitor (Pierce)), and allowed to rotate at 4° C. for 20 minutes. The samples were then centrifuged at 13000 g for 2 minutes, and the supernatant was separated for immunoprecipitation. 50 μL of washed anti-FLAG affinity beads (Sigma) were added to the supernatant and the sample was rotated at 4° C. for 2 hours. After immunoprecipitation, the samples were washed twice in Triton lysis buffer, once in high salt (500 mM NaCl) lyso sucrose buffer, and once in normal salt lyso sucrose buffer (250 mM sucrose, 10 mM KCl, 2 mM EGTA, 2.5 mM MgCl2, 25 mM HEPES, pH 7.4, 10% glycerol, protease inhibitor (Pierce)). Each wash consisted of rotating with the wash buffer for 5 minutes at 4° C. and subsequent centrifugation at 2000 g for 1 minute. For elution off FLAG beads, 3×-FLAG peptide in Phosphate Buffered Saline (PBS) was added to the sample, [RL2] and the sample was allowed to rotate overnight at 4° C. […]

RagA and RagC = test: Immunofluorescence of Rag GTPases and LAMP2 in HEK-293A cells; format: cell-based; settings: 2 h
Experimental: as §1, §2

SMILES	mTOR/mTORC1 localization to lysosomes (mTOR)	disruption of Rag GTPase-Lamtor interaction (Visual IP) [1]	RagA and RagC localization to LAMP2-positive lysosomes (RagA and RagC)	displacement of Rag and Lamtor interactions ([1]; 10 μM, dose-responsive) [%]	disruption of Rag GTPase-Lamtor interaction (Visual IP) ([1]; listed as YP1-44)
C=CC(=O)N1CCc2c(OCc3cc(C(F)(F)F)cc(C(F)(F)F)c3)cccc21 [CC 1-44]	induces dissociation of mTOR from lysosomes; also recorded: completely dispersed from lysosomes	does not; also recorded: did not break the LAMTOR-Rag interaction in vitro	increased RagA clustering on lysosomes	–	–
C=CC(=O)n1ccc2ccccc21 [YP 1-44]	completely dispersed from lysosomes	causes RagB dissociation from Lamtor; also recorded: disrupted the interaction	causes RagA dissociation from Lamtor; also recorded: decreased	~50	dispersion of the GFP-RagB signal
